From patent publication US20060014723A1, “Anti-parasitic uses of borinic acid complexes” (priority 2004, published 2006)
≈ marks a conversion by molar mass, not a printed value.

Legend:
[1] = test system: Trypanosoma cruzi Tulahuen C2C4 strain; assay: Chagas disease in vitro screening model (beta-galactosidase strain in L-6 cells); type: cell-based; conditions: for IC50: Trypanosoma cruzi, TULAHUEN, L6, read-out: T. cruzi IC50
Experimental: Trypanosoma cruzi Tulahuen C2C4 strain, containing the β-galactosidase (Lac Z) gene (Buckner et al., Antimicrob. Agents Chemother 40:2592-2597, 1996) is used for this study.
The infective amastigote and trypomastigote stages are cultivated in L-6 cells (a rat skeletal myoblast cell line) in RPMI 1640 medium supplemented with 2 mM L-glutamine and 10% heat-inactivated fetal bovine serum in 12.5 cm^2 tissue culture flasks. Amastigotes develop intracellularly, differentiate into trypomastigotes, and leave the host cell. These trypomastigotes infect new L-6 cells and are the stages used to initiate an infection in the assay. All cultures and assays are conducted at 37° C. under an atmosphere of 5% CO2 in air.
(§1) After use the stocks are kept at −20° C. For the assays, the compound is further diluted to the appropriate concentration using complete medium.
Assays are performed in sterile 96-well microtiter plates, each well containing 100 μl medium with 2×10^3 L-6 cells. After 24 hours, […] of a trypanosome suspension containing 5×10^3 trypomastigote bloodstream forms from culture are added to the wells. Forty-eight hours later, the medium is removed from the wells and replaced by […] fresh medium, with or without a serial drug dilution. At this point the L-6 cells should be infected with amastigotes and no free trypomastigotes should be in the medium. Seven 3-fold drug dilutions are used, covering a range from 90 μg/mL to 0.123 μg/mL. Each drug is tested in duplicate. Active compounds are tested twice for confirmation. After 96 hours of incubation the plates are inspected under an inverted microscope to assure growth of the controls and sterility.
Then the substrate CPRG/Nonidet (50 μl) is added to all wells. A colour reaction will become visible within 2-6 hours and can be read photometrically at 540 nm. Data are transferred into a graphics program (e.g., EXCEL), sigmoidal inhibition curves determined and IC50 values calculated.

P. falciparum K1 = assay: Malaria in vitro screening model (3H-hypoxanthine incorporation); type: cell-based, Plasmodium falciparum; conditions: for IC50: Plasmodium falciparum, K1
Experimental: […] P. falciparum K1 is used in this study. K1 (a clone originating from Thailand) is resistant to chloroquine and pyrimethamine. The strains are maintained in RPMI 1640 medium with 0.36 mM hypoxanthine, supplemented with 25 mM N 2-hydroxyethyipiperazine-N-2-ethane-sulphonic acid (HEPES), 25 mM NaHCO3, neomycin (100 U/mL) and 5 g/L of ALBUMAX® II (lipid-rich bovine serum albumin, GIBCO, Grand Island, N.Y., USA), together with 5% washed human A+ erythrocytes. All cultures and assays are conducted at 37° C. under an atmosphere of 4% CO2, 3% O2 and 93% N2. Cultures are kept in incubation chambers filled with the gas mixture. Subcultures are diluted to a parasitemia of between 0.1 and 0.5% and the medium is changed daily.
Antimalarial activity is assessed using an adaptation of the procedures described by Desjardins et al. (Antimicrob. Agents Chemother. 16:710-718, 1979), and Matile and Pink (In: Lefkovits, I. and Pernis, B. (Eds.), Immunological Methods Vol. IV, Academic Press, San Diego, pp. 221-234, 1990).
Stock drug solutions are prepared in 100% dimethylsulfoxide (DMSO) at 10 mg/mL, and heated or sonicated if necessary to dissolve the sample. After use, the stocks are kept at −20° C. For the assays, the compound is further diluted in serum-free culture medium and finally to the appropriate concentration in complete medium without hypoxanthine.
Assays are performed in sterile 96-well microtiter plates, each well containing 200 μl of parasite culture (0.15% parasitemia, 2.5% hematocrit) with or without serial drug solutions. Seven 2-fold dilutions are used, covering a range from […] to 0.078 μg/mL. For active compounds the highest concentration is lowered (e.g., to […]); for plant extracts the highest concentration is increased to 50 μg/mL. […] After 48 hours of incubation at 37° C., 0.5 μCi ^3H-hypoxanthine is added to each well. Cultures are incubated for a further 24 h before being harvested onto glass-fiber filters and washed with distilled water. The radioactivity is counted using a Betaplate liquid scintillation counter (Wallac, Zurich, Switzerland). The results are recorded as counts per minute per well at each drug concentration and expressed as percentage of the untreated controls. IC50 values are calculated from the sigmoidal inhibition curves using Microsoft EXCEL.

[2] = test system: Leishmania donovani strain MHOM/ET1671L82; assay: Leishmaniasis in vitro screening model (axenic amastigotes, Alamar Blue); type: cell-based; conditions: for IC50: Leishmania donovani, read-out: L. donovani IC50
Experimental: The Leishmania donovani strain MHOM/ET1671L82 (obtained from Dr. S. Croft, London School of Hygiene and Tropical Medicine) is used. The strain is maintained in the Syrian Golden hamster. Amastigotes are collected from the spleen of an infected hamster. Amastigotes are grown in axenic culture at 37° C. in SM medium (Cunningham I., J. Protozoal. 24:325-329, 1977) at pH 5.4 supplemented with 10% heat-inactivated fetal bovine serum (FBS) under an atmosphere of 5% CO2 in air.
as §1
Assays are performed in 96-well flat-bottom microtiter plates (Costar, Corning Inc.), each well containing 100 μl of culture medium with 105 amastigotes from axenic culture with or without a serial drug dilution. Concentration of amastigotes is determined in a CASY cell analyzing system (Scharfe System, Reutlingen, Germany). Before the amastigotes are counted, the parasite culture is passed twice through a 22-gauge needle to break up clusters of amastigotes.
The highest concentration for the test compounds is 90 μg/mL. Seven 3-fold dilutions are used, covering a range from […]. Each drug is tested in duplicate. Active compounds are tested twice for confirmation. After 72 hours of incubation, the plates are inspected under an inverted microscope to assure growth of the controls and sterile conditions.
(§2) Ten μL of Alamar Blue (12.5 mg resazurin dissolved in 100 mL distilled water) are then added to each well and the plates are incubated for another 2 hours. Then the plates are read with a Spectramax GEMINI XS microplate fluorometer (Molecular Devices Cooperation, Sunnyvale, Calif., USA) using an excitation wave length of 536 nm and an emission wave length of 588 nm.
Data are analyzed using the microplate reader software Softmax Pro (Molecular Devices Cooperation, Sunnyvale, Calif., USA). Decrease of fluorescence (i.e. inhibition) is expressed as percentage of the fluorescence of control cultures and plotted against the drug concentrations. The IC50 value is calculated from the sigmoidal inhibition curve by the software program.

[3] = test system: T. b. rhodesiense STIB 900; assay: African sleeping sickness in vitro screening model (Alamar Blue); type: cell-based, Trypanosoma brucei rhodesiense; conditions: for IC50: Trypanosoma brucei
Experimental: Bloodstream from trypomastigotes of the strains (a) and (c) are maintained in Minimal Essential Medium (MEM) with Earle's salts supplemented according to Baltz, et al., (EMBO J. 4:1273-1277, 1985) with 25 mM N-2-hydroxyethylpiperazine-N′-2-ethane-sulphonic acid (HEPES), 1 g/L additional glucose, 1% MEM non-essential amino acids (100×), 0.2 mM 2-mercaptoethanol, 2 mM sodium pyruvate, 0.1 mM hypoxanthine and 15% heat-inactivated horse serum.
All cultures and assays are conducted at 37° C. under an atmosphere of 5% CO2 in air.
After use the stocks are kept at −20° C. For the assays, the compound is further diluted in serum-free culture medium and finally to the appropriate concentration in complete medium without hypoxanthine.
Assays are performed in 96-well microtiter plates, each well containing 100 μL of culture medium with 8×10^3 bloodstream forms with or without a serial drug dilution. The highest concentration for the test compounds is 90 μg/mL. Seven 3-fold drug dilutions are used, covering a range from 90 μg/mL to 0.123 μg/mL. Each drug is tested in duplicate. Active compounds are tested twice for confirmation. The final result is the mean of the four individual IC50 values. After 72 hrs of incubation, the plates are inspected under an inverted microscope to assure growth of the controls and sterile conditions.
as §2, with “are now” for “are then”, “excitation wavelength” for “excitation wave length”
IC50 values are determined using the microplate reader software Softmax Pro (Molecular Devices Cooperation, Sunnyvale, Calif., USA).

SMILES | IC50 [1] [µg/mL] | IC50 (P. falciparum K1) [µg/mL] | IC50 [2] [µg/mL] | IC50 [3] [µg/mL] | T. cruzi IC50 [1] [µg/mL] | P. falciparum IC50 (P. falciparum K1) [µg/mL] | L. donovani IC50 [2] [µg/mL] | T. b. rhodesiense IC50 [3] [µg/mL]
N#Cc1ccc(B(Oc2cccc3cccnc23)c2cc(F)ccc2F)cc1 [Compound 35, (4-Cyanophenyl)(2,5-difluorophenyl)borinic acid quinolin-8-yl ester] | 0.705 (≈ 1.9 µM) | 1.74 (≈ 4.7 µM) | 0.38 (≈ 1.03 µM) | 0.275 (≈ 0.743 µM) |  |  |  | 
N#Cc1ccc(B(Oc2cccc3cccnc23)c2ccc(F)c(F)c2)cc1 [Compound 97] |  |  |  |  | 3.45 | 4.036 | 0.58 | 0.37
Fc1cccc(B(Oc2cccc3cccnc23)c2ccccc2Cl)c1 [Compound 30, (2-Chlorophenyl)(3-fluorophenyl)borinic acid quinolin-8-yl ester] | 0.82 (≈ 2.27 µM) | 1.74 (≈ 4.81 µM) | 0.58 (≈ 1.6 µM) | 0.305 (≈ 0.843 µM) |  |  |  | 
COC(=O)c1cccnc1C(=O)OB(c1ccc(C)c(Cl)c1)c1ccc(C)c(Cl)c1 [Compound 73] |  |  |  |  | 7.2 | 2.997 | 0.63 | 21.3
Cc1ccccc1B(Oc1cccc2cccnc12)c1cccc(Cl)c1 [Compound 25, (3-Chlorophenyl)(2-methylphenyl)borinic acid quinolin-8-yl ester] | 0.905 (≈ 2.53 µM) | 1.81 (≈ 5.06 µM) | 0.41 (≈ 1.15 µM) | 0.295 (≈ 0.825 µM) |  |  |  | 
Nc1cccc(C(=O)OB(c2ccc(Cl)cc2)c2ccc(Cl)cc2)n1 [Compound 131] |  |  |  |  | 0.0535 | 0.6855 | 0.24 | 7.6
O=C(OB(c1cccnc1)c1cccc(Cl)c1)c1ncccc1O [Compound 70] |  |  |  |  | 28.2 | >5 | 18.3 | 38.3
Nc1cccc(C(=O)OB(c2ccc(Cl)cc2)c2ccc(Cl)cc2)n1 [Compound 50] |  |  |  |  | 0.135 | 0.6115 | 0.23 | 9.45
CC1(C)COC(c2cccc(B(Oc3cccc4cccnc34)c3cccc(F)c3)c2)=N1 [Compound 19, [3-(4,5-Dihydro-4,4-dimethyloxazol-2yl)phenyl](3-fluorophenyl)borinic acid quinolin-8-yl ester] | 1.33 (≈ 3.15 µM) | 1.89 (≈ 4.45 µM) | 0.66 (≈ 1.56 µM) | 0.32 (≈ 0.754 µM) |  |  |  | 
CN(C)Cc1ccc(B(Oc2cccc3cccnc23)c2cc(F)cc(C(F)(F)F)c2)cc1 [Compound 120] |  |  |  |  | 4.9 | 2.794 | 0.44 | 0.42
Fc1ccc(B(Oc2cccc3cccnc23)c2cccc(Cl)c2)cc1 [Compound 14, (3-Chlorophenyl)(4-fluorophenyl)borinic acid quinolin-8-yl ester] |  | 1.9 (≈ 5.25 µM) | 0.37 (≈ 1.02 µM) | 0.5 (≈ 1.38 µM) |  | 1.93 | 0.48 | 0.28
CSc1cccc(B(Oc2cccc3cccnc23)c2cccc(Cl)c2)c1 [Compound 107] |  |  |  |  | 4.1 |  | 0.42 | 0.365
CN(C)Cc1ccc(B(Oc2cccc3cccnc23)c2ccc(Cl)cc2)cc1.Cl [Compound 105] |  |  |  |  | 4.2 |  | 0.72 | 0.41
CN(C)Cc1ccc(B(Oc2cccc3cccnc23)c2ccc(Cl)cc2)cc1.O=C(O)/C=C/C(=O)O [Compound 106] |  |  |  |  | 4.25 |  | 0.69 | 0.385
Fc1ccc(B(Oc2cccc3cccnc23)c2ccc(Cl)cc2)cc1F [Compound 114] |  |  |  |  | 4 |  | 0.71 | 0.41
N#Cc1ccc(B(Oc2cccc3cccnc23)c2cccc(Cl)c2)cc1 [Compound 26, (3-Chlorophenyl)(4-cyanophenyl)borinic acid quinolin-8-yl ester] |  | 1.4 (≈ 3.8 µM) | 0.41 (≈ 1.11 µM) | 0.29 (≈ 0.787 µM) |  | 1.44 | 0.55 | 0.21
CC1CCN(S(=O)(=O)c2ccc(B(Oc3cccc4cccnc34)c3ccc(Cl)cc3)cc2)CC1 [Compound 111] |  |  |  |  | 4.15 |  | 0.74 | 0.552
